Data taken from paper PMC6844378, “Structure activity relationship studies on Amb639752: toward the identification of a common pharmacophoric structure for DGKα inhibitors” (Journal of Enzyme Inhibition and Medicinal Chemistry, 2019).

What was measured:
DGKθ = target: T1, DGKθ (Homo sapiens, UniProt P52824); test: Isoform specificity, DGKθ homogenates of transfected 293T cells; type: biochemical; details: 100 µM; 293T homogenates
T1 construct: expressed in transfected cells; host or cells: 293T cells, transient transfection (Lipofectamine 3000), crude homogenate
T1 sequence (P52824 1-942): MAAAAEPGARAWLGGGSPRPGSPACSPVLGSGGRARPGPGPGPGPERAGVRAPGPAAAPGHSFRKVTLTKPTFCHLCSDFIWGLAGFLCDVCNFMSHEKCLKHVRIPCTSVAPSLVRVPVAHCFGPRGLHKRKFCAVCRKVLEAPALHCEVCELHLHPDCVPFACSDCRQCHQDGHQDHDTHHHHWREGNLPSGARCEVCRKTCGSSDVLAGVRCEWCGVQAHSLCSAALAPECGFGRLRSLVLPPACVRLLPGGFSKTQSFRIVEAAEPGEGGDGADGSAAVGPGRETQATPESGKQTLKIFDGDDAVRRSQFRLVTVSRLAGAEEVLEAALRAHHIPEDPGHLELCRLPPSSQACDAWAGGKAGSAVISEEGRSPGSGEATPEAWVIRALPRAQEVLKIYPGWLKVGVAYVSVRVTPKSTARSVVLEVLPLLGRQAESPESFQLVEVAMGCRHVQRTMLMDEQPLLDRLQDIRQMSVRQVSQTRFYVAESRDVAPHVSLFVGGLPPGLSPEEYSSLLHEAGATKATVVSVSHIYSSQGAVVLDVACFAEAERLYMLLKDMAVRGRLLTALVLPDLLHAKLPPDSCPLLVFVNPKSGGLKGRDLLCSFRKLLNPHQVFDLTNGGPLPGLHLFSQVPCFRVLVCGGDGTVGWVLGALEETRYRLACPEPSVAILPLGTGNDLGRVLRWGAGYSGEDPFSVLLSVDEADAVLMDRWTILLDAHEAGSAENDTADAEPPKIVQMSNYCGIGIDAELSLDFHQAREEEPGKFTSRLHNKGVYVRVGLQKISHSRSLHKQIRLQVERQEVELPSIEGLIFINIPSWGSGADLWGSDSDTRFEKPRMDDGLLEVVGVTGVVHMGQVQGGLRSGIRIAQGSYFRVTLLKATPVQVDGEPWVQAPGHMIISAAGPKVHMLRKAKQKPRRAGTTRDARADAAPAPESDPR
Experimental: (§1) 293T cells were transiently transfected with indicated DGK isoform plasmid DNA using Lipofectamine 3000, Invitrogen (Carlsbad, CA). Forty eight hours after transfection, cells were harvested and homogenised with a 29 G-needle using 500 µL of homogenate buffer for each dish and immediately stored in aliquots at –80 °C. Cells transfected with empty vector were used as controls, overexpressed DGK has an activity >50 folds the endogenous.
(§2) Essentionally, the same procedure was followed as reported previously in Velnati et al.[9] In brief, DGK activity was assayed by measuring initial velocities (5 min at 27 °C) in presence of saturating substrate concentrations. Reaction conditions: 0.9 µg/µL 1,2-dioleoyl-sn-glycerol, 5 mM ATP, 0.01 µCi/µL [γ^32P]-ATP, 1 mM sodium orthovanadate, 10 mM MgCl2, 1.2 mM EGTA in 7.5 mM Hepes pH 8[12]. Reaction mixture is assembled mixing enzyme (24.5 µL of homogenate), 100× inhibitor or DMSO (0.5 µL), 5× ATP solution (10 µL of 25 mM ATP, 0.05 µCi/µL [γ^32P]-ATP (Perkin-Elmer, Milan, Italy), 5 mM sodium orthovanadate, 50 mM MgCl2), and 3.3× DAG solution (15 µL of 3 µg/µL 1,2-dioleoyl-sn-glycerol resuspended by sonication in 4 mM EGTA in 25 mM Hepes pH 8). […] TLC was run 10 cm and dried before radioactive signals were detected by GS-250 molecular imager and was quantified by quantity one (Bio-Rad, Hercules, CA) software assuring the absence of saturated spots. […]

DGKζ = target: T2, DGKζ (Homo sapiens, UniProt Q13574); test: Isoform specificity, DGKζ homogenates of transfected 293T cells; type: biochemical; details: 100 µM; 293T homogenates
T2 construct: expressed in transfected cells; host or cells: 293T cells, transient transfection (Lipofectamine 3000), crude homogenate
T2 sequence (Q13574 whole entry, species assumed, canonical isoform): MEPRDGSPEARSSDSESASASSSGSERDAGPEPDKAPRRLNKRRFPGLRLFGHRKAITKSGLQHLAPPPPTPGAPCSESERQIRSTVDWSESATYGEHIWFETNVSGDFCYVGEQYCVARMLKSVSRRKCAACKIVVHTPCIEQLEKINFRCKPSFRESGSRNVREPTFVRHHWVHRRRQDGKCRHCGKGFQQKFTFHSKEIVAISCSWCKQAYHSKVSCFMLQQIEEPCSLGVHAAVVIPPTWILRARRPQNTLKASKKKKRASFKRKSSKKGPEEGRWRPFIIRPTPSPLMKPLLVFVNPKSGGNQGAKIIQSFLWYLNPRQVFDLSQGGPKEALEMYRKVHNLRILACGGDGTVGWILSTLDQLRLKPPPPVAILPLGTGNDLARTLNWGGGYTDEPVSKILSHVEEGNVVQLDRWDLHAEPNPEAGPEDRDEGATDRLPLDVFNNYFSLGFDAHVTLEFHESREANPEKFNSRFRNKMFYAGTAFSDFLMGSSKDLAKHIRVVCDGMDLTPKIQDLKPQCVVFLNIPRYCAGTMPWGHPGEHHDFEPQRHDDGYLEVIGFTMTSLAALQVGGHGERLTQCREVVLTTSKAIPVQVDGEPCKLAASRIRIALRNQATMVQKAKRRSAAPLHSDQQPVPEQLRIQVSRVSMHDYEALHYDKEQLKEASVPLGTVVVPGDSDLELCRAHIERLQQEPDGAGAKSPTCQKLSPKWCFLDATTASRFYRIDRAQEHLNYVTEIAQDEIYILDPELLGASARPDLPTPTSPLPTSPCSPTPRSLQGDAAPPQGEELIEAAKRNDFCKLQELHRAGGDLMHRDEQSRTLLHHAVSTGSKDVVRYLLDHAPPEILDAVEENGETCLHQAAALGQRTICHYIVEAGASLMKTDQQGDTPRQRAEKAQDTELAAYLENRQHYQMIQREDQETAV
Experimental: as §1, §2

DGKα = DGKα (Homo sapiens, UniProt P23743); test: Isoform specificity, DGKα homogenates of transfected 293T cells; type: biochemical; details: 100 µM; 293T homogenates
Sequence of DGKα (P23743 whole entry, canonical isoform): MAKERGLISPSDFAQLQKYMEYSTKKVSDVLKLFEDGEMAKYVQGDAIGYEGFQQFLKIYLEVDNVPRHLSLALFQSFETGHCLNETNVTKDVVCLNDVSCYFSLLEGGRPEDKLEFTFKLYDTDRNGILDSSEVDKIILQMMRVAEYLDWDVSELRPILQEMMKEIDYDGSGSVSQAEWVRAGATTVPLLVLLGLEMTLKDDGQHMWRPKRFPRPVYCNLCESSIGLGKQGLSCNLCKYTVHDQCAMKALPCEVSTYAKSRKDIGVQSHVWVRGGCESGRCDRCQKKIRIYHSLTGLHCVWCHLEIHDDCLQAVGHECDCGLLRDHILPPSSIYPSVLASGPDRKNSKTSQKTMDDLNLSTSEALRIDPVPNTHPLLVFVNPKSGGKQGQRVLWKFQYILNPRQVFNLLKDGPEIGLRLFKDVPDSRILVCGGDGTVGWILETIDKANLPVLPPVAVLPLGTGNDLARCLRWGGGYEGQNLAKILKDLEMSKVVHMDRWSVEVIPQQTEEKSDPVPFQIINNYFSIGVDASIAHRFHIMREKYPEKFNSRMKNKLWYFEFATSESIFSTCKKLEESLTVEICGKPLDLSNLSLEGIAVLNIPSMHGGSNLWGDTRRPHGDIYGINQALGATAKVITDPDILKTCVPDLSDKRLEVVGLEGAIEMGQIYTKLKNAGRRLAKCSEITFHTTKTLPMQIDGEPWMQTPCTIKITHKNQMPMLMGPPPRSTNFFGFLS
Experimental: as §1, §2

MCF7 cells = test: Migration assay (serum induced wound healing); type: cell-based; details: 10 µM, 15 h, in presence of serum, vs vehicle (DMSO)
Experimental: Michigan Cancer Foundation 7 (MCF7) cells were cultured in DMEM with 10% FBS + 1% penicillin/streptomycin and cultures were maintained by splitting them for every 2–3 days using trypsin–EDTA 0.25%.
Cell migration assays were performed using the Culture-Insert 2 well in µ-Dish (ibidi GmbH, Martinsried, Germany).
Briefly, 25,000 MCF7 cells were plated in each well and cultured for 24 h. The day after, the culture insert was removed and the cells were washed with PBS before treating them with respective DGKα inhibitors (10 µM) or DMSO for 15 h in complete medium (DMEM 10% FBS + 1% penicillin/streptomycin), while medium without FBS was used as a negative control for migration.
Phase-contrast pictures were taken immediately after treatment (0 h) and after 15 h under 5× magnification.
Finally, wound areas were determined using ImageJ software (NIH, , Bethesda, MD). Wound reduction was calculated by using the following formula: (wound area at 15 h/wound at 0 h)×100, the values obtained were expressed as the percentage of wound area compared to the initial area.
To evaluate if our newly synthetised DGKα inhibitors were effective in impairing cancer cell migration, we measured serum induced wound healing in MCF7 breast cancer cells in presence of 10 µM inhibitor. […]
Figure 10. […] Results are expressed as the percentage of wound area compared to the initial area. […]

effect on DGKθ activity (DGKθ) | effect on DGKζ activity (DGKζ) | inhibition of DGKα activity (DGKα) | SMILES | cell migration (wound closure) (MCF7 cells)
do not have significant effects | do not have significant effects | completely inhibit | Cc1ccc2c(C(=O)CN3CCN(C(=O)c4ccco4)CC3)c(C)[nH]c2c1 [Amb639752] | –
– | – | – | Cc1ccc2c(C(=O)CN3CCN(C(=O)c4ccc(Cl)cc4)CC3)c(C)[nH]c2c1 [Compound 11, 2-(4-(4-Chlorobenzoyl)piperazin-1-yl)-1-(2,6-dimethyl-1H-indol-3-yl)ethan-1-one] | reduce the migration
activator | – | – | Cc1ccc(C(=O)N2CCN(CC(=O)c3c(C)[nH]c4cc(C)ccc34)CC2)cc1 [Compound 20, 1-(2,6-Dimethyl-1H-indol-3-yl)-2-(4-(4-methylbenzoyl)piperazin-1-yl)ethan-1-one] | reduce the migration
